Biological target: Serine/threonine-protein kinase B-raf [V600E] (Homo sapiens, UniProt P15056, V600E)
Experiment: Kinase Activity Assay
Experimental: BRAF kinase assays were performed using the Z′-LYTE™ enzymatic assay (Invitrogen, USA). […] Titrations were performed using a 1:3 dilution. Assays were performed using Select Screen (Invitrogen).

Serine/threonine-protein kinase B-raf [V600E], sequence (P15056 2-766 V600E limits assumed): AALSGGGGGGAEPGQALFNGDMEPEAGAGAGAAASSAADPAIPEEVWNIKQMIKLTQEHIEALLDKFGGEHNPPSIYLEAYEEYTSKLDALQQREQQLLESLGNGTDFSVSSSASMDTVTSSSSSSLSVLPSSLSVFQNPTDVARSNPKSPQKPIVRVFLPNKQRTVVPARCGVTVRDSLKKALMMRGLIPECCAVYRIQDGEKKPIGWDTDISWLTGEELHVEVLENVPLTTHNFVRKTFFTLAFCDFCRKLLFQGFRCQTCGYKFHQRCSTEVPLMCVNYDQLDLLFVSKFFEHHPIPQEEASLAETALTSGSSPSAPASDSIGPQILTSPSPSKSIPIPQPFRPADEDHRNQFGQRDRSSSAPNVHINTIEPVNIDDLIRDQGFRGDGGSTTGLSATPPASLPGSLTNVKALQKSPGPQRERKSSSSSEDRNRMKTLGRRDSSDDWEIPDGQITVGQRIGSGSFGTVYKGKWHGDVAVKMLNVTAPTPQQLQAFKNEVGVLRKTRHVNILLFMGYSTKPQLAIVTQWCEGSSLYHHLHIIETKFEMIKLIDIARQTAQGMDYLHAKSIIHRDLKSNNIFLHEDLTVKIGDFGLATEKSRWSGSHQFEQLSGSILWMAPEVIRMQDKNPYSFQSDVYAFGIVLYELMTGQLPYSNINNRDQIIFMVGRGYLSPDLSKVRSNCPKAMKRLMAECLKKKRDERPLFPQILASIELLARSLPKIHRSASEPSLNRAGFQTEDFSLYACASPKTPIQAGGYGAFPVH

IC50: 17.8 nM
Compound: COC(=O)N1CCN(CCNCc2ccc(NC(=O)c3ccc(C)c(C#Cc4cnc5cccnn45)c3)cc2C(F)(F)F)CC1 [US12440494, Compound 2]

From BindingDB's records for patent US12440494 (Albert Einstein College of Medicine, 2025)
